In one assay the test system is cbiMCbl riboswitch. Kind of assay: FbFP reporter assay, WT cbiMCbl riboswitch in FbFP-ΔcobA strain. The class given is cell-based, P. UF1. The note with it: for FbFP expression with VB12 analogues: various concentrations of analogues. An excerpt: (§1) To generate the cbiMCbl riboswitch-FbFP translational fusion constructs, the 5′ UTR (FIG. 6C) containing the promoter of cobA operon, wild-type cbiMCbl riboswitch and ribosome-binding site was PCR amplified from P. UF1 genome (NCBI Genome database, CP018002) with primers S-cobA-1 and S-cobA 22. The codon-optimized FbFP gene (32) was synthesized (GenScript, Piscataway, N.J.) and PCR amplified using primers S-cobA 33 and S-cobA 4. Overlapping PCR was used to ligate the 5′ UTR and FbFP gene using Primers cobA-1 and S-cobA-4, which was subsequently cloned into plasmid pYMZ between BamHI and XbaI sites. Mutations of the cbiMCbl riboswitch were generated by site-directed mutagenesis or overlapping PCR (Table S1). cbiM, cbiN, cbiO, cobA, and tetR reporters were constructed using similar strategies. All plasmids were verified via Sanger sequencing (Genewiz, South Plainfield, N.J.) and introduced into P. UF1 or ΔcobA P. UF1 by electroporation.
FbFP reporter assays: To perform FbFP fluorescence intensity measurement, bacteria were cultivated for three days in triplicate, washed, and resuspended with PBS. The excitation and emission wavelengths of FbFP were set at 452 nm and 495 nm on a microplate reader (BioTek, Winooski, Vt.), respectively (48). FbFP intensity at 495 nm was normalized by corresponding OD600 values for each sample. P. UF1 strain with an empty vector was used as the baseline for calculation of fluorescence intensity.
(In general: Reporter assays use an easily measured gene product as a stand-in for the process of interest.)

In assay [1] the test system is cobA operon. Kind of assay: Western blot of cobA operon gene expression under WT cbiMCbl riboswitch in ΔcobA P. UF1 reporter strains. It is filed as cell-based. The settings on record: for cbiM expression with VB12 analogues: various concentrations of analogues.
Source text: as §1
Western blot: Bacteria were cultivated for three days, and washed three times, followed by lysozyme digestion (10 mg/ml) for 2 hours at 37° C. Cell lysates were separated by 12% SDS-PAGE, transferred to PVDF membranes (Sigma Aldrich, St. Louis, Mo.), and blocked with Odyssey blocking buffer (Li-Cor Biosciences, Lincoln, Nebr.). Subsequently, membranes were incubated with anti-HIS-tag antibody (Thermo Fisher Scientific, Waltham, Mass.), anti-TetR antibody (Takara Bio, Mountain view, CA), anti-CobA serum antibodies, or anti-LspA serum antibodies (Stock in our lab) for 2 h at room temperature in the blocking buffer with 0.02% Tween 20. After washing with TBST (20 mM Tris, 150 mM NaCl and 0.1% Tween 20, pH 7.4), membranes were incubated with IRDye 680RD goat anti-mouse secondary antibody (Li-Cor Biosciences, Lincoln, Nebr.) for 1 hour at room temperature in the blocking buffer with 0.02% Tween 20. After washing with TBS, the proteins were detected using an Odyssey infrared imaging system (Li-Cor Biosciences, Lincoln, Nebr.). LspA was used as an internal control.
On the technique in general: In western blotting, separated proteins are transferred to a membrane and probed.

Assay [2] has as its system SL1-deleted riboswitch (ΔSL1). Kind of assay: FbFP reporter assay, SL1-deleted riboswitch in FbFP-ΔcobA strain. It is filed as cell-based, P. UF1.
Source text: as §1
FbFP reporter assays: To perform FbFP fluorescence intensity measurement, bacteria were cultivated for three days in triplicate, washed, and resuspended with PBS. The excitation and emission wavelengths of FbFP were set at 452 nm and 495 nm on a microplate reader (BioTek, Winooski, Vt.), respectively (48). […] P. UF1 strain with an empty vector was used as the baseline for calculation of fluorescence intensity.

For assay [3], the system named is SL1-deleted riboswitch (ΔSL1). Kind of assay: Western blot of cbiM expression, SL1-deleted riboswitch in CbiM-ΔcobA strain. It is filed as cell-based, P. UF1. The settings on record: VB12 0-5000 ng/ml.
Source text: as §1
Western blot: Bacteria were cultivated for three days, and washed three times, followed by lysozyme digestion (10 mg/ml) for 2 hours at 37° C. […] After washing with TBS, the proteins were detected using an Odyssey infrared imaging system (Li-Cor Biosciences, Lincoln, Nebr.). […]

Another assay deals with 5′ UTR of cobA operon. Kind of assay: FbFP and cbiM reporter expression in FbFP-WT and CbiM-WT strains. It is filed as cell-based, P. UF1. The settings on record: FbFP-WT and CbiM-WT cultures.
Source text: as §1
[…] The excitation and emission wavelengths of FbFP were set at 452 nm and 495 nm on a microplate reader (BioTek, Winooski, Vt.), respectively (48). […] P. UF1 strain with an empty vector was used as the baseline for calculation of fluorescence intensity.
[…] After washing with TBS, the proteins were detected using an Odyssey infrared imaging system (Li-Cor Biosciences, Lincoln, Nebr.). […]

Assay [4] concerns cobA operon. Kind of assay: qRT-PCR of cobA operon transcription. It is filed as cell-based. The settings on record: P. UF1 incubated with various concentrations of VB12. An excerpt: Quantitative RT-PCR: Total RNA was extracted from various bacterial cultures using Trizol reagent (Thermo Fisher Scientific, Waltham, Mass.), and the RNA mixtures were further purified using the Aurum Total RNA Mini Kit (Bio-Rad, Hercules, Calif.). The cDNA was synthesized from total RNA using iScript Advanced cDNA Synthesis Kit (Bio-Rad, Hercules, Calif.). Quantitative real-time was accomplished with SsoAdvanced Universal SYBR Green Supermix (Bio-Rad, Hercules, Calif.) on a CFX96 real-time PCR system (Bio-Rad, Hercules, Calif.) using primers listed in Table 2 above. Results were normalized to those obtained from groL2 gene.
A general note: Real-time PCR tracks product formation cycle by cycle.

Consider `C/C1=C2/[N-][C@H]([C@H](CC(N)=O)[C@@]2(C)CCC(=O)NC[C@@H](C)OP(=O)([O-])O[C@H]2[C@@H](O)[C@@H](n3cnc4cc(C)c(C)cc43)O[C@@H]2CO)[C@]2(C)N=C(/C(C)=C3N=C(/C=C4N=C1[C@@H](CCC(N)=O)C\4(C)C)[C@@H](CCC(N)=O)[C@]\3(C)CC(N)=O)[C@@H](CCC(N)=O)[C@]2(C)CC(N)=O.[CH2-][C@H]1O[C@@H](n2cnc3c(N)ncnc32)[C@H](O)[C@@H]1O.[Co]` [adenosylcobalamin], for which the “FbFP expression with VB12 analogues” value in the assay with cbiMCbl riboswitch (FbFP-ΔcobA strain) is listed as “similarly downregulated”. Further, the “cbiM expression with VB12 analogues” value in the assay with cobA operon [1] (CbiM-ΔcobA strain) is reported as “similarly downregulated”.

Take `C/C1=C2/[N-][C@H]([C@H](CC(N)=O)[C@@]2(C)CCC(=O)NC[C@H](C)OP(=O)([O-])O[C@H]2[C@@H](O)[C@@H](n3cnc4cc(C)c(C)cc43)O[C@@H]2CO)[C@]2(C)N=C(/C(C)=C3N=C(/C=C4N=C1[C@@H](CCC(N)=O)C\4(C)C)[C@@H](CCC(N)=O)[C@]\3(C)CC(N)=O)[C@@H](CCC(N)=O)[C@]2(C)CC(N)=O.[CH3-].[Co+3]` [methylcobalamin]: the “FbFP expression with VB12 analogues” value in the assay on cbiMCbl riboswitch (FbFP-ΔcobA strain) is on record as “similarly downregulated”. The “cbiM expression with VB12 analogues” value with cobA operon [1] (CbiM-ΔcobA strain) is “similarly downregulated”.

With `C/C1=C2/[N-][C@H]([C@H](CC(N)=O)[C@@]2(C)CCC(=O)NC[C@@H](C)OP(=O)([O-])O[C@H]2[C@@H](O)[C@@H](n3cnc4cc(C)c(C)cc43)O[C@@H]2CO)[C@]2(C)N=C(/C(C)=C3N=C(/C=C4N=C1[C@@H](CCC(N)=O)C\4(C)C)[C@@H](CCC(N)=O)[C@]\3(C)CC(N)=O)[C@@H](CCC(N)=O)[C@]2(C)CC(N)=O.[Co+3].[OH-]` [hydroxocobalamin], the “FbFP expression with VB12 analogues” value with cbiMCbl riboswitch (FbFP-ΔcobA strain) was “similarly downregulated”. Moreover, the “cbiM expression with VB12 analogues” value in the assay on cobA operon [1] (CbiM-ΔcobA strain) is listed as “similarly downregulated”.

In the case of Vitamin B12 [VB12], in the assay with cbiMCbl riboswitch, the “VB12 concentration completely inhibiting expression of downstream genes by cbiMCbl riboswitch” value was determined as 750 µM. Also, the “VB12 concentration at which expression of FbFP was completely abated” value in the assay with cbiMCbl riboswitch (FbFP-ΔcobA strain, WT riboswitch) was found to be 500 ng/mL. In the assay on cbiMCbl riboswitch (FbFP-ΔcobA strain, WT riboswitch, VB12 0-2500 ng/ml), the “half maximal inhibitory concentration (IC50) of VB12 on FbFP expression” value worked out at 0.0752 µg/mL. The “repression of FbFP expression” value in the assay on cbiMCbl riboswitch (WT riboswitch, 250 ng/ml VB12) is ~10 fold. Besides, the “IC50 of VB12 on FbFP expression, SL1-deleted riboswitch” value in assay [2] (FbFP-ΔcobA strain, ΔSL1 riboswitch, VB12 0-5000 ng/ml) was determined as 12.962 µg/mL. Moreover, the “IC50 with ΔSL1 relative to WT riboswitch” value in assay [2] (ΔSL1 vs WT riboswitch) is listed as 256 times. The “cbiM expression (Western blot, HIS-tag antibody)” value in the assay on cobA operon [1] (CbiM-ΔcobA strain, VB12 0-2500 ng/ml) is reported as “dose-dependent inhibition”. In the assay with cobA operon [1] (CbiN-ΔcobA and CbiO-ΔcobA cultures, VB12 0-25000 ng/ml), the “expression of cbiN and cbiO (Western blot)” value was “dampened”. Moreover, the “cobA expression (Western blot)” value with cobA operon [1] (CobA-ΔcobA strain, VB12 0-25000 ng/ml) is “dose-dependent inhibition but to a lesser extent”. In addition, the “cbiM expression, ΔSL1 compared to WT riboswitch” value in assay [3] is listed as “no repression”. The “expression of FbFP and cbiM” value with 5′ UTR of cobA operon is listed as “significantly decreased”. In addition, the “mRNA levels of cbiM, cbiN, cbiO and cbiQ” value with cobA operon [4] is reported as “significantly repressed”.

Take cyanocobalamin: the “FbFP expression with VB12 analogues” value in the assay with cbiMCbl riboswitch (FbFP-ΔcobA strain) is “similarly downregulated”. In addition, in the assay on cobA operon [1] (CbiM-ΔcobA strain), the “cbiM expression with VB12 analogues” value is reported as “similarly downregulated”.

Source of the values: patent publication US20220364135A1, “MODIFIED PROPIONIBACTERIUM AND METHODS OF USE” (priority 2019, published 2022).
